According to PubChem BioAssay AID2060612 (Molecular Pharmacology Branch, DTP, NCI, 2025):
Values joined by “and” are separate entries in the source; they are usually repeats but may differ in a detail not shown here. Identical values can stand only once.

System: 565232-114-T-J1-PDC complex spheroid viability
Test: Anticancer human tumor 565232-114-T-J1-PDC patient-derived bladder carcinoma cell line growth inhibition [CLK]
Conditions: for viability, T/C: stronger effect = lower value
Method in brief: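 Multi-cell-type spheroids combined patient-derived tumor cells with HUVEC endothelial cells and human mesenchymal stem cells. Paired agents were dosed in half-log steps down from about clinical Cmax, or from 10 microM where Cmax was unknown.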

[1] = curve of first compound, second compound 0.0316 µM
[2] = curve of first compound, second compound 0.1 µM
[3] = curve of first compound, second compound 0.316 µM
[4] = curve of first compound, second compound 1 µM
[5] = curve of first compound, second compound 3.16 µM
[6] = curve of first compound, second compound 10 µM
[7] = second compound 0.0316 µM, first compound 0.0316 µM
[8] = second compound 0.0316 µM, first compound 0.1 µM
[9] = second compound 0.0316 µM, first compound 0.316 µM
[10] = second compound 0.0316 µM, first compound 1 µM
[11] = second compound 0.0316 µM, first compound 3.16 µM
[12] = second compound 0.0316 µM, first compound 10 µM
[13] = second compound 0.1 µM, first compound 0.0316 µM
[14] = second compound 0.1 µM, first compound 0.1 µM
[15] = second compound 0.1 µM, first compound 0.316 µM
[16] = second compound 0.1 µM, first compound 1 µM
[17] = second compound 0.1 µM, first compound 3.16 µM
[18] = second compound 0.1 µM, first compound 10 µM
[19] = second compound 0.316 µM, first compound 0.0316 µM
[20] = second compound 0.316 µM, first compound 0.1 µM
[21] = second compound 0.316 µM, first compound 0.316 µM
[22] = second compound 0.316 µM, first compound 1 µM
[23] = second compound 0.316 µM, first compound 3.16 µM
[24] = second compound 0.316 µM, first compound 10 µM
[25] = second compound 1 µM, first compound 0.0316 µM
[26] = second compound 1 µM, first compound 0.1 µM
[27] = second compound 1 µM, first compound 0.316 µM
[28] = second compound 1 µM, first compound 1 µM
[29] = second compound 1 µM, first compound 3.16 µM
[30] = second compound 1 µM, first compound 10 µM
[31] = second compound 3.16 µM, first compound 0.0316 µM
[32] = second compound 3.16 µM, first compound 0.1 µM
[33] = second compound 3.16 µM, first compound 0.316 µM
[34] = second compound 3.16 µM, first compound 1 µM
[35] = second compound 3.16 µM, first compound 3.16 µM
[36] = second compound 3.16 µM, first compound 10 µM
[37] = second compound 10 µM, first compound 0.0316 µM
[38] = second compound 10 µM, first compound 0.1 µM
[39] = second compound 10 µM, first compound 0.316 µM
[40] = second compound 10 µM, first compound 1 µM
[41] = second compound 10 µM, first compound 3.16 µM
[42] = second compound 10 µM, first compound 10 µM
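Note: spheroids exposed to compounds for 7 days before readout.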
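Throughout, for viability, T/C: 100% = DMSO vehicle wells with luminescence normalized to vehicle control.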

O=C(c1cc(Cc2n[nH]c(=O)c3ccccc23)ccc1F)N1CCN(C(=O)C2CC2)CC1 + CNC(=O)c1ccc(Nc2nc(OC3CCCC3)c3c(-c4ccc5nc(C)oc5c4)c[nH]c3n2)c(OC)c1
IC50 [1]: > 10000 nM | IC50 [2]: 1500 nM | IC50 [3]: < 31.6 nM | IC50 [4]: < 31.6 nM | IC50 [5]: < 31.6 nM | IC50 [6]: < 31.6 nM | viability, T/C [7]: 81.7% | viability, T/C [8]: 85.9% | viability, T/C [9]: 87.8% | viability, T/C [10]: 82.8% | viability, T/C [11]: 104% | viability, T/C [12]: 64.8% | viability, T/C [13]: 49% | viability, T/C [14]: 52.6% | viability, T/C [15]: 63.5% | viability, T/C [16]: 48.8% | viability, T/C [17]: 45.7% | viability, T/C [18]: 34% | viability, T/C [19]: 36.4% | viability, T/C [20]: 40.3% | viability, T/C [21]: 30.4% | viability, T/C [22]: 32.4% | viability, T/C [23]: 33.4% | viability, T/C [24]: 30.2% | viability, T/C [25]: 24% | viability, T/C [26]: 26.8% | viability, T/C [27]: 23.2% | viability, T/C [28]: 22.8% | viability, T/C [29]: 27.1% | viability, T/C [30]: 24.8% | viability, T/C [31]: 22.5% | viability, T/C [32]: 23.4% | viability, T/C [33]: 21.3% | viability, T/C [34]: 21.7% | viability, T/C [35]: 22.4% | viability, T/C [36]: 19.3% | viability, T/C [37]: 23.2% | viability, T/C [38]: 25.5% | viability, T/C [39]: 16.5% | viability, T/C [40]: 22.3% | viability, T/C [41]: 21% | viability, T/C [42]: 18.2%

NC(=O)C(=Cn1cnc(-c2cc(C(F)(F)F)cc(C(F)(F)F)c2)n1)c1cncnc1
viability, T/C (compound 0.00949 µM): 99% and 110% | viability, T/C (compound 0.03 µM): 99.6% and 106% | viability, T/C (compound 0.0949 µM): 111% and 105% | viability, T/C (compound 0.3 µM): 71.5% and 52.6% | viability, T/C (compound 0.949 µM): 6.85% and 2.59% | viability, T/C (compound 3 µM): 1.92% and 0.42% | IC50 (curve of compound): 436 nM and 319 nM

CC(=O)O[C@H]1C(=O)[C@@]2(C)[C@H]([C@H](OC(=O)c3ccccc3)[C@]3(O)C[C@H](OC(=O)[C@H](O)[C@@H](NC(=O)c4ccccc4)c4ccccc4)C(C)=C1C3(C)C)[C@]1(OC(C)=O)CO[C@@H]1C[C@@H]2O + CNC(=O)c1ccc(Nc2nc(OC3CCCC3)c3c(-c4ccc5nc(C)oc5c4)c[nH]c3n2)c(OC)c1
IC50 [1]: < 31.6 nM | IC50 [2]: < 31.6 nM | IC50 [3]: < 31.6 nM | IC50 [4]: < 31.6 nM | IC50 [5]: < 31.6 nM | IC50 [6]: < 31.6 nM | viability, T/C [7]: 24.3% | viability, T/C [8]: 9.42% | viability, T/C [9]: 9.43% | viability, T/C [10]: 10% | viability, T/C [11]: 13.3% | viability, T/C [12]: 16.3% | viability, T/C [13]: 37.8% | viability, T/C [14]: 32.8% | viability, T/C [15]: 35.9% | viability, T/C [16]: 29.6% | viability, T/C [17]: 43.8% | viability, T/C [18]: 42.9% | viability, T/C [19]: 31.6% | viability, T/C [20]: 38% | viability, T/C [21]: 38.3% | viability, T/C [22]: 46.9% | viability, T/C [23]: 51% | viability, T/C [24]: 46.5% | viability, T/C [25]: 22.9% | viability, T/C [26]: 30.6% | viability, T/C [27]: 30.7% | viability, T/C [28]: 41.2% | viability, T/C [29]: 41.4% | viability, T/C [30]: 36.1% | viability, T/C [31]: 24.4% | viability, T/C [32]: 25.5% | viability, T/C [33]: 25.1% | viability, T/C [34]: 29.9% | viability, T/C [35]: 26.6% | viability, T/C [36]: 29% | viability, T/C [37]: 20.4% | viability, T/C [38]: 22.3% | viability, T/C [39]: 29.6% | viability, T/C [40]: 28.1% | viability, T/C [41]: 30.5% | viability, T/C [42]: 27.7%

C=C(F)C(=O)N1CCN(c2nc(OCC3CCCN3C)nc3c2CCN(c2cccc4cccc(Cl)c24)C3)CC1CC#N (stereo not given) + CNC(=O)c1ccc(Nc2nc(OC3CCCC3)c3c(-c4ccc5nc(C)oc5c4)c[nH]c3n2)c(OC)c1
IC50 [1]: 5870 nM | IC50 [2]: 3910 nM | IC50 [3]: < 31.6 nM | IC50 [4]: < 31.6 nM | IC50 [5]: < 31.6 nM | IC50 [6]: < 31.6 nM | viability, T/C [7]: 116% | viability, T/C [8]: 79.8% | viability, T/C [9]: 116% | viability, T/C [10]: 101% | viability, T/C [11]: 127% | viability, T/C [12]: 0.2% | viability, T/C [13]: 57.3% | viability, T/C [14]: 58.6% | viability, T/C [15]: 53.5% | viability, T/C [16]: 68.6% | viability, T/C [17]: 68.4% | viability, T/C [18]: 0.17% | viability, T/C [19]: 35.9% | viability, T/C [20]: 33.5% | viability, T/C [21]: 34.2% | viability, T/C [22]: 28.8% | viability, T/C [23]: 37.1% | viability, T/C [24]: 0.14% | viability, T/C [25]: 20.6% | viability, T/C [26]: 26.6% | viability, T/C [27]: 29.4% | viability, T/C [28]: 22.3% | viability, T/C [29]: 22.9% | viability, T/C [30]: 0.13% | viability, T/C [31]: 16.9% | viability, T/C [32]: 19.2% | viability, T/C [33]: 17.3% | viability, T/C [34]: 17.1% | viability, T/C [35]: 17.4% | viability, T/C [36]: 0.17% | viability, T/C [37]: 17.4% | viability, T/C [38]: 18.9% | viability, T/C [39]: 16.9% | viability, T/C [40]: 16.4% | viability, T/C [41]: 18.4% | viability, T/C [42]: 0.23%

CC(C)CC(NC(=O)C(Cc1ccccc1)NC(=O)c1cnccn1)B(O)O (stereo not given) + CN1CCN(c2cc(C(=O)Nc3cc4cc(-c5cnn(C)c5)ccc4cn3)ccn2)CC1
IC50 [1]: 5.73 nM | IC50 [2]: 6.17 nM | IC50 [3]: < 0.949 nM | IC50 [4]: < 0.949 nM | IC50 [5]: < 0.949 nM | IC50 [6]: < 0.949 nM | viability, T/C (second compound 0.0316 µM, first compound 0.000949 µM): 120% | viability, T/C (second compound 0.0316 µM, first compound 0.003 µM): 109% | viability, T/C (second compound 0.0316 µM, first compound 0.00949 µM): 4.38% | viability, T/C (second compound 0.0316 µM, first compound 0.03 µM): 1.43% | viability, T/C (second compound 0.0316 µM, first compound 0.0949 µM): 1.54% | viability, T/C (second compound 0.0316 µM, first compound 0.3 µM): 1.27% | viability, T/C (second compound 0.1 µM, first compound 0.000949 µM): 129% | viability, T/C (second compound 0.1 µM, first compound 0.003 µM): 133% | viability, T/C (second compound 0.1 µM, first compound 0.00949 µM): 2.13% | viability, T/C (second compound 0.1 µM, first compound 0.03 µM): 1.8% | viability, T/C (second compound 0.1 µM, first compound 0.0949 µM): 1.71% | viability, T/C (second compound 0.1 µM, first compound 0.3 µM): 1.6% | viability, T/C (second compound 0.316 µM, first compound 0.000949 µM): 23.8% | viability, T/C (second compound 0.316 µM, first compound 0.003 µM): 25.9% | viability, T/C (second compound 0.316 µM, first compound 0.00949 µM): 3.56% | viability, T/C (second compound 0.316 µM, first compound 0.03 µM): 1.36% | viability, T/C (second compound 0.316 µM, first compound 0.0949 µM): 1.26% | viability, T/C (second compound 0.316 µM, first compound 0.3 µM): 0.65% | viability, T/C (second compound 1 µM, first compound 0.000949 µM): 0.22% | viability, T/C (second compound 1 µM, first compound 0.003 µM): 3% | viability, T/C (second compound 1 µM, first compound 0.00949 µM): 1.91% | viability, T/C (second compound 1 µM, first compound 0.03 µM): 0.18% | viability, T/C (second compound 1 µM, first compound 0.0949 µM): 2.19% | viability, T/C (second compound 1 µM, first compound 0.3 µM): 2.68% | viability, T/C (second compound 3.16 µM, first compound 0.000949 µM): 0.16% | viability, T/C (second compound 3.16 µM, first compound 0.003 µM): 1.18% | viability, T/C (second compound 3.16 µM, first compound 0.00949 µM): 0.21% | viability, T/C (second compound 3.16 µM, first compound 0.03 µM): 0.14% | viability, T/C (second compound 3.16 µM, first compound 0.0949 µM): 0.16% | viability, T/C (second compound 3.16 µM, first compound 0.3 µM): 1.81% | viability, T/C (second compound 10 µM, first compound 0.000949 µM): 0.1% | viability, T/C (second compound 10 µM, first compound 0.003 µM): 3.27% | viability, T/C (second compound 10 µM, first compound 0.00949 µM): 3.03% | viability, T/C (second compound 10 µM, first compound 0.03 µM): 0.17% | viability, T/C (second compound 10 µM, first compound 0.0949 µM): 1.45% | viability, T/C (second compound 10 µM, first compound 0.3 µM): 0.23%
